Experimental data: patent US20230404963A1, “COMBINATIONS OF METAP2 INHIBITORS AND CD4/6 INHIBITORS FOR THE TREATMENT OF CANCER” (SynDevRx, Inc., priority 2020, published 2023)

System: MCF-7 tumors
Experiment: Tumor Growth Inhibition in mice bearing MCF-7 tumors treated with Compound 1 and/or ribociclib
Type: in vivo
Procedure: In the following experiment, mice bearing MCF-7 tumors were treated with either a vehicle control, Compound 1 alone, ribociclib alone, or with a combination of Compound 1 and ribociclib. MCF-7 were cultured in DMEM supplemented with 10% FBS. On the day of implantation, cells were washed 1× with phosphate-buffered saline (PBS). Following washing, cells were pelleted (5 min @ 1000 rpm, RT) and then counted with a hemocytometer. A cell concentration of 5×10^6 per mouse was re-suspended in an appropriate amount of PBS and 1:1 Matrigel. The suspension was kept on ice until implantation. Forty-eight hours prior to cell implantation, a 17-β estradiol pellet (0.36 mg 60-day slow release pellet) was be implanted subcutaneously between the scapulae of each Female Nu/j mouse. […] Once anesthetized, the mice were positioned ventral side up and anesthesia maintained through a fitted nose cone. The MCF-7 cell suspension was injected into the mammary fat pad at a volume of 100 μl containing 5×10^6 cells per mouse. Beginning 5 days post cell implantation, tumors were measured two times weekly (length×width) using a wireless digital calipers in conjunction with UWAVE-R to record measurements. […] The first day of treatment was designated “Day 1”. The mice were dosed either subcutaneously (SC), orally (PO), or by both dose routes, as put forth in the experimental designed summarized in Table 3. Doses were calculated by individual body weights. [table] The first group of mice (Group #1) were administered the vehicle control by oral administration once a day (QD). […] The fifth group of mice (Group #5) were administered Ribociclib at a dose of 35 mg/kg by oral administration once a day (QD). The sixth group of mice (Group #6) were administered Ribociclib at a dose of 70 mg/kg by oral administration once a day (QD). Twice weekly body weights and tumor measurements were recorded for the duration of the study. […] Upon euthanasia, a maximum volume terminal blood sample was obtained via cardiac puncture and split 200 μL in a K2EDTA MiniCollect tube for plasma separation and 420 μL in to a MiniCollect serum separator tube for half the mice for Clinical Chemistry analysis. For the other half of the mice, >200 μL of blood was collected in to K2EDTA MiniCollect tubes (LTT) for CBC analysis. The MiniCollect blood tubes for both plasma and serum were centrifuged at 8000 rpm for 5 minutes. The plasma was retained for biomarker analysis at −80° C., the serum and whole blood (LTT) were further analyzed. Additionally, tumor from the mice were dissected, weighed, and split into two pieces. Half of the tumor was placed into buffered formalin and stored at room temperature. Half of the tumor was snap-frozen in liquid N2, and stored at −80° C. […]

Q: What does the source list for `CN(C)C(=O)c1cc2cnc(Nc3ccc(N4CCNCC4)cn3)nc2n1C1CCCC1` [Ribociclib, ribociclib]?
A: TGI % (day 14, Group 5: Ribociclib 35 mg/kg PO QD): 57%; TGI % (day 14, Group 6: Ribociclib 70 mg/kg PO QD): 70%; TGI % (day 18, Group 5: Ribociclib 35 mg/kg PO QD (10 times the dose on day 16)): 60%; TGI % (day 18, Group 6: Ribociclib 70 mg/kg PO QD (10 times the dose on day 16)): 70%
